The target in assay [1] is MLK3 (Homo sapiens, UniProt Q16584). Nature of the assay: Radiometric MLK3 kinase inhibition assay. Type of assay: biochemical.
The target of assay [2] is ERK2 (Homo sapiens, UniProt P28482). In words: Kinase specificity profiling. Type of assay: binding.
For assay [3], the system named is phosphorylated JNK (pJNK) in brain. In words: Inhibition of JNK phosphorylation in HIV-Tat treated mice. It counts as in vivo, C57BL/6 mice. The following applies: 10 mg/kg i.p. every twelve hours.
Assay [4] concerns the target EGFR (Homo sapiens, UniProt P00533). In words: Kinase specificity profiling. Type of assay: binding.
For assay [5], the target named is AKT1 (Homo sapiens, UniProt P31749). In words: Kinase specificity profiling. It counts as binding.
Assay [6] deals with ERK1 (Homo sapiens, UniProt P27361). In words: Kinase specificity profiling. It counts as binding.
Assay [7] addresses CDK11 (Homo sapiens, UniProt Q9BWU1). In words: DiscoverRx ScanMax kinome binding scan. To be noted: read-out: CDK11 % inhibition (ScanMax).
Assay [8] addresses BRAF (Homo sapiens, UniProt P15056). Nature of the assay: Kinase specificity profiling. It counts as binding.
In assay [9] the target is T1, DLK (Homo sapiens, UniProt Q12852).
T1 sequence (Q12852 1-859): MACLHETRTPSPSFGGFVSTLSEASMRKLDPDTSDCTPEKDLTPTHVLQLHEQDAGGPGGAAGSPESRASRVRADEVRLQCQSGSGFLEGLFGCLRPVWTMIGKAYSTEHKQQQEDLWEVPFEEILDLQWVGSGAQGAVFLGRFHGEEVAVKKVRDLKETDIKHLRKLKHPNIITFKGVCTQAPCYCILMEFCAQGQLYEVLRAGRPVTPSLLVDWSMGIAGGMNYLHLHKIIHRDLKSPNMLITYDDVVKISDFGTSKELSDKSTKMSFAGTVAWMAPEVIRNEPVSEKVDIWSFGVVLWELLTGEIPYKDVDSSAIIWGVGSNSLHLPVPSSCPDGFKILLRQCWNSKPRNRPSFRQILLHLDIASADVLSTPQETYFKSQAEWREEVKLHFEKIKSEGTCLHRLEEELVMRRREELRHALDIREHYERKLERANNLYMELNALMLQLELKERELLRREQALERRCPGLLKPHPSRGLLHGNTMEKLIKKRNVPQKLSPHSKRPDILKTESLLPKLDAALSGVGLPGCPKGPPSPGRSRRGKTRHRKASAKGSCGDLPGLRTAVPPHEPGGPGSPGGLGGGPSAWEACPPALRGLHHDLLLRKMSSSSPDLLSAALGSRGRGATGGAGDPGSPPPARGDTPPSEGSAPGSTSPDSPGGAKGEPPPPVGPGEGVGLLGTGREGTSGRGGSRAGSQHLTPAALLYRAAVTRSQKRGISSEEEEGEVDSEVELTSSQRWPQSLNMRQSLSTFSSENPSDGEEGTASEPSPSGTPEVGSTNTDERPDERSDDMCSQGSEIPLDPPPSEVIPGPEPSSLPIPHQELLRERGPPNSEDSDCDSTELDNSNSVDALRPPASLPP
Nature of the assay: DLK kinase inhibition. Type of assay: biochemical.

The target of assay [10] is T1, DLK. Nature of the assay: DiscoverRx ScanMax kinome binding scan.
The target in assay [11] is AKT2 (Homo sapiens, UniProt P31751). In words: Kinase specificity profiling. It counts as binding.
In assay [12] the target is AKT3 (Homo sapiens, UniProt Q9Y243). Nature of the assay: Kinase specificity profiling. Type of assay: binding.
Assay [13] addresses LRRK2 (Homo sapiens, UniProt Q5S007). In words: DiscoverRx ScanMax kinome binding scan. The following applies: read-out: LRRK2 % inhibition of binding (ScanMax), 1 μM.

The values below come from article PMC4032177 (Journal of medicinal chemistry, 2013).

Chain of MLK3 (Q16584 whole entry): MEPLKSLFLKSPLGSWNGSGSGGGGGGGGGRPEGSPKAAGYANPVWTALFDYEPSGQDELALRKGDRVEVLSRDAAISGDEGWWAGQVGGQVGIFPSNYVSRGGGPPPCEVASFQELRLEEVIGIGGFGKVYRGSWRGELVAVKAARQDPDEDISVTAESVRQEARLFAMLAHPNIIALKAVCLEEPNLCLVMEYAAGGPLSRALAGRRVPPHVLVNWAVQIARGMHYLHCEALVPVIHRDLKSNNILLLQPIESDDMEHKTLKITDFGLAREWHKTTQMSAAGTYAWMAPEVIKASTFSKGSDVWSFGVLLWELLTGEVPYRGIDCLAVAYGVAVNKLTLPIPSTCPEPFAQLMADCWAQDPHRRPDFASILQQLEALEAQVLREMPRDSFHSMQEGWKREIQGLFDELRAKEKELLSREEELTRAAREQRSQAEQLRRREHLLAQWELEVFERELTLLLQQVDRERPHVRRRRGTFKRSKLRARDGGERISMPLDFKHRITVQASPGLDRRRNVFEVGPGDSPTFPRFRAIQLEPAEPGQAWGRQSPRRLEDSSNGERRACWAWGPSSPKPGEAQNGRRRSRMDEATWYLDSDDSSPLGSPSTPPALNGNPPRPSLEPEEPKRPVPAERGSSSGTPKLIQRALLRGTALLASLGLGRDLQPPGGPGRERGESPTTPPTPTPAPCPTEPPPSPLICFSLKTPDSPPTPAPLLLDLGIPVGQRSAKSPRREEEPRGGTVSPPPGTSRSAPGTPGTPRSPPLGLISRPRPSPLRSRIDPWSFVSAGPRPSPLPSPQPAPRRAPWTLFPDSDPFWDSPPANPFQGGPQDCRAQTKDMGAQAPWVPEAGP
Chain of ERK1 (P27361 whole entry): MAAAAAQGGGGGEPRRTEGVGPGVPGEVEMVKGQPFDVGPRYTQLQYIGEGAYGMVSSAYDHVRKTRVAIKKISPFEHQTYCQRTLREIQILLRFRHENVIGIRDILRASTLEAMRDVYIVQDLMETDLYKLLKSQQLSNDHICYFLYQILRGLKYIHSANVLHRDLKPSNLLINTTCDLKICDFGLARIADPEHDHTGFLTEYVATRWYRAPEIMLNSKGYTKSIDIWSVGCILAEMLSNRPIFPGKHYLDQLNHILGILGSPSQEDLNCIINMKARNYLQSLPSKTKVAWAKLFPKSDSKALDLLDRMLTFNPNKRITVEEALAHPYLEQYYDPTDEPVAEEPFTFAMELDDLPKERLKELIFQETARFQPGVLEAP
Chain of AKT3 (Q9Y243 whole entry): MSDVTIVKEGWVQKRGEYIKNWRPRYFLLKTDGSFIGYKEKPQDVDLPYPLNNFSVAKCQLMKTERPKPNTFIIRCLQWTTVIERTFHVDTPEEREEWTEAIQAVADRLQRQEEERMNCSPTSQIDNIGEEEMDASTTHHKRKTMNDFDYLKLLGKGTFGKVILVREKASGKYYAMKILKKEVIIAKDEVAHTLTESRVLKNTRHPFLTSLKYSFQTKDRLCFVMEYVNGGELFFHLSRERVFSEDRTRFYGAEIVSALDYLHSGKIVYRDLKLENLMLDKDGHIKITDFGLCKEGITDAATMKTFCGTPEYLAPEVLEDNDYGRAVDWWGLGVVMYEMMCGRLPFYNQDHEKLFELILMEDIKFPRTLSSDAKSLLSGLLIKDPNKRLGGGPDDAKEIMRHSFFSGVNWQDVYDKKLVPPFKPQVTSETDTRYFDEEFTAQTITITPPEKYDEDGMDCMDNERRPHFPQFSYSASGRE
Chain of AKT1 (P31749 whole entry): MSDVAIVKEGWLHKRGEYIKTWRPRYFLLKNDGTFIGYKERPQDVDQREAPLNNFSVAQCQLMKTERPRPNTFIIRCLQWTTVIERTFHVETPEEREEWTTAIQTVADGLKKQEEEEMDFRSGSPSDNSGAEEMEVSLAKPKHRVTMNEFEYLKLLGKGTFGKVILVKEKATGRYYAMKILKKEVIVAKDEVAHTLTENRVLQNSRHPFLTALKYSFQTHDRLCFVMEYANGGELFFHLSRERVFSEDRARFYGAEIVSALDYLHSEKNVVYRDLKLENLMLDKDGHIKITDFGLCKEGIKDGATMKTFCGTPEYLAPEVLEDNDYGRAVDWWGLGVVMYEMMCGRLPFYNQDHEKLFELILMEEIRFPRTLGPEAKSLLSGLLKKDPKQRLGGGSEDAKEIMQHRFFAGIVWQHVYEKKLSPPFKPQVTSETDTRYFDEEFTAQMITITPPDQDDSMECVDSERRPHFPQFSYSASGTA
Chain of AKT2 (P31751 whole entry): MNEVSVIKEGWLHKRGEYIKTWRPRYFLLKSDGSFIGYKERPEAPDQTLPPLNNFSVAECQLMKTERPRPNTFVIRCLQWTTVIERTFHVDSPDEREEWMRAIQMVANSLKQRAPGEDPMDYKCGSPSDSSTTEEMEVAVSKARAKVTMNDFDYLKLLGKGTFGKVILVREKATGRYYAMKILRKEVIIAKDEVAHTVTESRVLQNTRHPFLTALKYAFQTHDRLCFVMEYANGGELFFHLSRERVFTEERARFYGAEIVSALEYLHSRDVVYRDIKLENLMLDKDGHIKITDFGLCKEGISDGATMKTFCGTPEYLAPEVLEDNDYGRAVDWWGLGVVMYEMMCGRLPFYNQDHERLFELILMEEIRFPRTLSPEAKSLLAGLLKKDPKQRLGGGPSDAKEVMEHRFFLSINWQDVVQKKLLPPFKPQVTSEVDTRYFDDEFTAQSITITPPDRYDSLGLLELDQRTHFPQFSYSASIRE
Chain of ERK2 (P28482 whole entry): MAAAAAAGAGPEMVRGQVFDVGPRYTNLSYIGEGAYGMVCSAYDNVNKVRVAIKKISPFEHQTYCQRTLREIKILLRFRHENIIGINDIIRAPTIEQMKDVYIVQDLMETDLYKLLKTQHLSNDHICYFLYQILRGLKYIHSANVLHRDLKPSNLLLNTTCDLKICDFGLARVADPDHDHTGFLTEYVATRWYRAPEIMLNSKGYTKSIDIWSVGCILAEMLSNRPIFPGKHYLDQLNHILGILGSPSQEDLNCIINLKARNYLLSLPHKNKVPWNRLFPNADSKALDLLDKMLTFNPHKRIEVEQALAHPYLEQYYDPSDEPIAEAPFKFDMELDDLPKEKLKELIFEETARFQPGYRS
Chain of CDK11 (Q9BWU1 whole entry): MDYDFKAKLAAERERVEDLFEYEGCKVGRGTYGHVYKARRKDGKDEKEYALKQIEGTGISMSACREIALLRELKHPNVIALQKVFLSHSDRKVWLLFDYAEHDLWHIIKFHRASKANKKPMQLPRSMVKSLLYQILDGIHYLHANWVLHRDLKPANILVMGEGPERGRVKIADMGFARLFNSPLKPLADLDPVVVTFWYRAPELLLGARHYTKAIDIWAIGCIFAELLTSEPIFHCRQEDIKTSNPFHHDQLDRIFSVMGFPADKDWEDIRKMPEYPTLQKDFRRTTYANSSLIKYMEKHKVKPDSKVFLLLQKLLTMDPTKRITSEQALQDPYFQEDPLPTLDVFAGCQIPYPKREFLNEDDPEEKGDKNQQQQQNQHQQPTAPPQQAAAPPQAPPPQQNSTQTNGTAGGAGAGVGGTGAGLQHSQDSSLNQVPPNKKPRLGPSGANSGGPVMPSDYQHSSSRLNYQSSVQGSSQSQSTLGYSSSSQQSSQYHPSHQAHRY
Chain of BRAF (P15056 whole entry): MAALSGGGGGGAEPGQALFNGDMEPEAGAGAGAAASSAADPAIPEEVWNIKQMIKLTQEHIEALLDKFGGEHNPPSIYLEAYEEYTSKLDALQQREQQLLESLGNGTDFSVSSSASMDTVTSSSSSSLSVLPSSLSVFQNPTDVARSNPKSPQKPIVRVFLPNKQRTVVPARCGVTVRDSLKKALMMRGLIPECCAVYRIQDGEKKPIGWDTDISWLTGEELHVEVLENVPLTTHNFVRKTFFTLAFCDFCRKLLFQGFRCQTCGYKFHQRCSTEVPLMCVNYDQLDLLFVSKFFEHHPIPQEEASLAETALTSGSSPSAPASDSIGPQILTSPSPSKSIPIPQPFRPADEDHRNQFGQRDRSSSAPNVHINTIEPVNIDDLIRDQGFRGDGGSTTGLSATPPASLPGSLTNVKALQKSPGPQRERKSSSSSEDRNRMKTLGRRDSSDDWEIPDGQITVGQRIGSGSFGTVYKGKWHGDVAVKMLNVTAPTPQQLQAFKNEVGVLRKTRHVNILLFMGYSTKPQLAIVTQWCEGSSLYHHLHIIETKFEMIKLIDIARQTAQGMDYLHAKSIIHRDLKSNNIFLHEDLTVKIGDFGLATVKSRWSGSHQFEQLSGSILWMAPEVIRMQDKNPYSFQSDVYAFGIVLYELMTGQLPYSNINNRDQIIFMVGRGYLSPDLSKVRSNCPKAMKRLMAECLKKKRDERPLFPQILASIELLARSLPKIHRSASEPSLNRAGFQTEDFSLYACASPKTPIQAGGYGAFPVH

The compound `CN1CCN(Cc2ccc(-c3cnc4[nH]cc(-c5ccc6[nH]ccc6c5)c4c3)cc2)CC1` [Compound 1, 3-(1H-Indol-5-yl)-5-(4-((4-methylpiperazin-1-yl)methyl)phenyl)-1H-pyrrolo[2,3-b]pyridine] yielded a Ki in assay [1] of approximately 10 nM. The “Activity against ERK2” value in assay [2] was “essentially inactive”. The “pJNK levels in saline-treated animals” value in assay [3] is recorded as “no effect”. Also, in assay [4], the “Activity against EGFR” value is “essentially inactive”. For the same compound, the “Activity against AKT1” value in assay [5] was “essentially inactive”. In assay [6], the “Activity against ERK1” value was “essentially inactive”. For the same compound, the inhibition at 1 µM in assay [7] was more than 90%. Moreover, the “Activity against BRAF” value in assay [8] is “essentially inactive”. Besides, it took 150 nM to reach half-maximal inhibition in assay [9] (IC50). The Kd in [10] came out at 70 nM. Further, the “Activity against AKT2” value in assay [11] was “essentially inactive”. Besides, the “Activity against AKT3” value in assay [12] was “essentially inactive”.

`CCSCc1ccc2c(c1)c1c3c(c4c5cc(CSCC)ccc5n5c4c1n2[C@H]1C[C@](O)(C(=O)OC)[C@]5(C)O1)CNC3=O` [Compound 2, (9S,10R,12R)-9,12-Epoxy-1H-diindolo[1,2,3-fg:3′,2′,1′-kl]pyrrolo[3,4-i][1,6]benzodiazocine-10-carboxylic acid, 5,16-bis[(ethylthio)methyl]-2,3,9,10,11,12-hexahydro-10-hydroxy-9-methyl-1-oxo methyl ester]: the inhibition at 1 µM in [13] is more than 99%.

Turning to `COc1cc(-c2cnc3[nH]c(=O)n(-c4ccc5[nH]ccc5c4)c3n2)cc(OC)c1OC` [Compound 7, 1-(1H-Indol-5-yl)-6-(3,4,5-trimethoxyphenyl)-1H-imidazo[4,5-b]pyrazin-2(3H)-one], the IC50 in assay [1] lay in the range of 40 to 120 nM.

One may read the Ki as a measure of affinity in units of concentration, obtained from inhibition or displacement. The term inhibition denotes the change of the read-out against control, counted positive when it falls. The term IC50 denotes the concentration needed to halve the response being measured. A high value points to a need for much substance. The Kd is a measure of binding affinity in units of concentration. Low readings indicate a tighter complex, high ones a looser complex.
